# Reference: US11541029B2, “High penetration compositions and their applications” (Techfields Pharma Co., Ltd., priority 2008, dated 2023)
# Assays:
# [1] = system: Human colon cancer cells (LS174J); test: Human colon cancer xenograft in nude mice
# Description: Human colon cancer cells (LS174J, 2-3 mm^3 of tumor tissue was used in each mouse) were subcutaneously xenografted into nude mice (BALB).
# [2] = system: Human breast cancer cells (BCAP-37); test: Human breast cancer xenograft in nude mice
# Summary of the method: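 BCAP-37 tumour tissue (2-3 mm^3 per mouse) implanted subcutaneously in BALB nude mice, 12 groups of 7. Test salts given as 50 μl of 5% aqueous solution (2.5 mg compound per dose).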
smiles,measurement,setting,value
"CCN(CC)CCOC(=O)c1ccccc1OC(C)=O.Cl [P-1, diethylaminoethyl acetylsalicylate.HCl salt]",tumor Size at day 30,[1]; about 50 μl of 5% topically every 12 hours,480 ± 130 mm^3
same,Weight of mice at day 30,[1]; in vivo,23 ± 3
same,tumor Size at day 42,[2]; 50 μl of 5% topically every 8 hours,140 ± 50 mm^3
same,Weight of mice at day 42,[2]; in vivo,24 ± 3
